Where a name gives a salt, the structure may show the parent alone.
What was measured:
Male ICR mice [1] = assay: Mice swimming test; assay type: in vivo
Excerpt: (§1) The following method is used for testing the antidepression effect of the compound of the present application. ICR mice or SD rats, gavaged for two successive weeks, were subjected to mice swimming test, mice tail suspension test and rats swimming test. See below for details of the tests and results.
Male ICR mice weighing 18 g to 20 g were used. They were fed on sterilized standard feed.
The compound administered in the test was 1-{2-[2,4-bis(trideuteriomethyl)phenylsulfanyl]phenyl}piperazine hydrobromic acid salt (XX for short). Vortioxetine (YY for short) was used as a control sample. Venlafaxine HCl (from Wyeth, USA) was used as a positive control.
Vortioxetine (15 mg) was combined with 10% hydroxypropyl-β-cyclodextrin to form a solution of 100 mL and was administered at daily dose of 3 mg/kg. 1-{2-[2,4-bis(trideuteriomethyl)phenylsulfanyl]phenyl}piperazine hydrobromic acid salt (15 mg and 7.5 mg) was combined with 10% hydroxypropyl-β-cyclodextrin to form two solutions of 100 mL and was administered at daily doses of 3 mg/kg and 1.5 mg/kg, respectively. Venlafaxine HCl (75 mg) was combined with 0.5% CMC-Na to form a solution of 100 mL and was administered at daily dose of […].
A recording and analysis system for small-animal behavior (Noldus) was used.
All the eighty mice were subjected to prescreening one day before the administration. The mice, fasted for 4 hours were put in a round glass tank (ø 14 cm×h 20 cm, with water of 10 cm depth and at a temperature of 25° C.) to swim. […] The whole swimming course was recorded by the video and the data were collected and analyzed automatically by Noldus software.
The forty qualified mice were divided into 4 groups, each of which had 10 mice, according to the Excel random grouping.
The medicaments were administered to each group by gavage with the amount of 0.2 ml per 10 g of body weight, once a day for 14 successive days. One hour later after the last oral administration, the mice were allowed to swim for 6 min. The video recorded the whole swimming course, and the Noldus software automatically collected and analyzed the data.
The data was given as “average±standard deviation” (x±s). One-way analysis of variance (one-way ANOVA) was used for data difference statistics. Differences among the groups were determined by P<0.05.

Male ICR mice [2] = assay: Mice tail suspension test; assay type: in vivo
Excerpt: as §1
The animals, medicaments, calculation of dosages to the mice, preparation of drug solution and apparatus are the same as those in the mice swimming test.
The medicaments were correspondingly administered by gavage, once a day, to the animals in the groups for 14 successive days, with the amount of 0.2 ml per 10 g of body weight. The mice were subjected to tail suspension one hour later after the last oral administration. The suspension continued for 6 min.
The data was given as “average±standard deviation” (x±s). One-way analysis of variance (ANOVA) was used for data difference statistics. Differences among the groups were determined by P<0.05.

[3] = 30 mg/kg gavage, two successive weeks

With `COc1ccc(C(CN(C)C)C2(O)CCCCC2)cc1` (stereo not shown) [Venlafaxine, Venlafaxine HCl, reference compound] as the molecule, how does the “effect on length of time that the mice stopped swimming vs blank control” value (Male ICR mice [1]; [3]) read?
The value was “markedly shortened”.

And the “Duration without Movement within the Last 4 min of the Whole 6 min” value (Male ICR mice [1]; mice, gavage once a day for 14 days, 30 mg/kg, n = 10, x ± s)?
The value was 173.6 ± 31.4 s.

And the “effect on length of time that the tail-suspended mice stopped moving vs blank control” value (Male ICR mice [2]; [3])?
The value was “markedly shortened”.

And the “Duration without Move within 6 min” value (Male ICR mice [2]; mice tail suspension, gavage 14 days, 30 mg/kg, n = 10, x ± s)?
Its value is 180.6 ± 661.8 s.

Reference: patent US9896423B2, “Deuterium substituted 1-[2-(2,4-dimethyl-phenylsulfanyl)-phenyl]piperazine compound or derivatives thereof, and pharmaceutical composition and use thereof” (Jiangsu Jibeier Pharmaceutical Co. Ltd., priority 2014, dated 2018)
